Here are results for three compounds from US9695155B2, “Herbicidal substituted pyrimidinyloxy benzene compounds” (E. I. DU PONT DE NEMOURS AND COMPANY, priority 2013, dated 2017).

The test system of one test is pigweed. The test can be described thus: Test A postemergence. The class given is in vivo, Amaranthus retroflexus. The method, boiled down: (§1)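 Visual injury scored 0–100 (100 = complete control) against untreated controls about 10 days after treatment in a greenhouse. Test chemicals, formulated with surfactant in non-phytotoxic solvent, were sprayed on soil preemergence or on 2-10 cm, one- to two-leaf plants postemergence.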

In another test the test system is Italian ryegrass. As to the kind of experiment: Test C preemergence. The format is in vivo, Lolium multiflorum. As to conditions: Lolium multiflorum, pre-emergence. An excerpt:
(§2) Seeds of plant species selected from blackgrass (Alopecurus myosuroides), Italian ryegrass (Lolium multiflorum), wheat, winter (winter wheat, Triticum aestivum), galium (catchweed bedstraw, Galium aparine), corn (Zea mays), large (Lg) crabgrass (Digitaria sanguinalis), giant foxtail (Setaria faberii), johnsongrass (Sorghum halepense), lambsquarters (Chenopodium album), morningglory (Ipomoea coccinea), yellow nutsedge (Cyperus esculentus), pigweed (Amaranthus retroflexus), ragweed (common ragweed, Ambrosia elatior), soybean (Glycine max), barnyardgrass (Echinochloa crus-galli), oilseed rape (Brassica napus), waterhemp (common waterhemp, Amaranthus rudis), kochia (Kochia scoparia), wild oat (Avena fatua), surinam grass (Brachiaria decumbens), foxtail, green (green foxtail, Setaria viridis), goosegrass (Eleusine indica), bromegrass, downy (downy bromegrass, Bromus tectorum), nightshade (eastern black nightshade, Solanum ptycanthum), cocklebur (common cocklebur, Xanthium strumarium), cupgrass, woolly (woolly cupgrass, Eriochloa villosa), bermudagrass (Cynodon dactylon), sunflower, (common oilseed sunflower, Helianthus annuus), Russian thistle (Salsola kali), and velvetleaf (Abutilon theophrasti) were planted into a blend of loam soil and sand and treated preemergence with test chemicals formulated in a non-phytotoxic solvent mixture which included a surfactant.
(§3) At the same time, plants selected from these crop and weed species and also barley, winter (winter barley, Hordeum vulgare), windgrass (Apera spica-venti), chickweed (common chickweed, Stellaria media), deadnettle (henbit deadnettle, Lamium amplexicaule), and canarygrass (littleseed canarygrass, Phalaris minor) were planted in pots containing Redi-Earth® planting medium (Scotts Company, 14111 Scottslawn Road, Marysville, Ohio 43041) comprising spaghnum peat moss, vermiculite, wetting agent and starter nutrients and treated with postemergence applications of test chemicals formulated in the same manner. Plants ranged in height from 2 to 18 cm (1- to 4-leaf stage) for postemergence treatments. Treated plants and controls were maintained in a greenhouse for 13 to 15 days, after which time all species were compared to controls and visually evaluated. Plant response ratings, summarized in Table C, are based on a scale of 0 to 100 where 0 is no effect and 100 is complete control. A dash (-) response means no test result.

In a further test the test system is morningglory. The test can be described thus: Test C preemergence. The class given is in vivo, Ipomoea coccinea. The conditions noted are these: Ipomoea, pre-emergence.
From the text: as §2, §3

The test system of test [1] is velvetleaf. As to the kind of experiment: Test C preemergence. The class given is in vivo, Abutilon theophrasti. The conditions noted are these: Abutilon theophrasti, pre-emergence.
From the text: as §2, §3

For test [2], the system named is large (Lg) crabgrass. The test can be described thus: Test A preemergence. The class given is in vivo, Digitaria sanguinalis. The conditions noted are these: Digitaria sanguinalis, pre-emergence, 240 h. The method, boiled down: as §1
The test system of a further test is giant foxtail. As to the kind of experiment: Test A preemergence. The format is in vivo, Setaria faberii. The method, boiled down: as §1
The test system of the next test is Heteranthera limosa. The test can be described thus: Test B flooded paddy test. The class given is in vivo. The conditions noted are these: Flood, 250 g ai/ha, 0 to 100 scale where 0 is no effect and 100 is complete control. The gist of the method: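 Post-emergence paddy-water application at the 2-leaf stage, with 3 cm flood kept for the whole test. Response was judged visually relative to controls after 13 to 15 greenhouse days, 0 indicating no effect and 100 complete control.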

In a further test the test system is johnsongrass. As to the kind of experiment: Test C preemergence. The format is in vivo, Sorghum halepense. As to conditions: Sorghum halepense, pre-emergence.
From the text: as §2, §3

The test system of test [3] is velvetleaf. As to the kind of experiment: Test A preemergence. The format is in vivo, Abutilon theophrasti. The gist of the method:
as §1

The test system of another test is galium. The test can be described thus: Test C preemergence. The format is in vivo, Galium aparine. As to conditions: Galium, pre-emergence.
From the text: as §2, §3

The next test relates to chickweed. As to the kind of experiment: Test C postemergence. The format is in vivo, Stellaria media. The conditions noted are these: for Plant response rating (0 to 100), Chickweed: 16 g ai/ha, 0 is no effect, 100 is complete control.
From the text: as §2, §3

For test [4], the system named is large (Lg) crabgrass. As to the kind of experiment: Test C postemergence. The conditions noted are these: for Plant response rating (0 to 100), Crabgrass, Large: 16 g ai/ha, 0 is no effect, 100 is complete control. The class given is in vivo, Digitaria sanguinalis.
From the text: as §2, §3

In the next test the test system is corn. As to the kind of experiment: Test C postemergence. The format is in vivo, Zea mays. As to conditions: for Plant response rating (0 to 100), Corn: 16 g ai/ha, 0 is no effect, 100 is complete control.
From the text: as §2, §3

The next test has as its system wheat, winter. As to the kind of experiment: Test C postemergence. The class given is in vivo, Triticum aestivum. As to conditions: for Plant response rating (0 to 100), Wheat: 16 g ai/ha, 0 is no effect, 100 is complete control.
From the text: as §2, §3

Setting [5] is: 125 g ai/ha, 0 to 100 scale where 0 is no effect and 100 is complete control.
Where [6] appears, read: 125 g ai/ha, postemergence, visual rating, scale 0 to 100 (0 no effect, 100 complete control).
The mark [7] stands for this setting: Postemergence, 62 g ai/ha, scale 0 to 100 (0 no effect, 100 complete control).
Where [8] appears, read: 31 g ai/ha, postemergence, visual rating, scale 0 to 100 (0 no effect, 100 complete control), 13 to 15 days.

Molecules are shown by their SMILES.

Turning to `FC(F)(F)c1cnn(-c2ccccc2Oc2ncc(Br)cn2)c1` [Compound 18, 5-bromo-2-[2-[4-(trifluoromethyl)-1H-pyrazol-1-yl]phenoxy]pyrimidine], the pest or weed control at 125 g/ha in the test on pigweed (Amaranthus retroflexus, post-emergence, 125 g ai/ha, 0 to 100 scale where 0 is no effect and 100 is complete control, read-out: Plant response rating, Pigweed) came to 100%; in the test with Italian ryegrass (125 g ai/ha, preemergence, scale 0 (no effect) to 100 (complete control), read-out: Ryegrass, Italian plant response rating), 45%; with morningglory (125 g ai/ha, preemergence, scale 0 (no effect) to 100 (complete control), read-out: Morningglory plant response rating), 80%; in the test on velvetleaf [1] (125 g ai/ha, preemergence, scale 0 (no effect) to 100 (complete control), read-out: Velvetleaf plant response rating), 100%; with large (Lg) crabgrass [2] (125 g ai/ha, 0 to 100 scale where 0 is no effect and 100 is complete control, read-out: Plant response rating, Crabgrass, Large) it was 100%; with giant foxtail (Setaria faberi, pre-emergence, 240 h, 125 g ai/ha, 0 to 100 scale where 0 is no effect and 100 is complete control, read-out: Plant response rating, Foxtail, Giant), 100%. In addition, the pest or weed control at 125 g/ha with johnsongrass (125 g ai/ha, preemergence, scale 0 (no effect) to 100 (complete control), read-out: Johnsongrass plant response rating) came to 80%; with galium (125 g ai/ha, preemergence, scale 0 (no effect) to 100 (complete control), read-out: Galium plant response rating) it was 100%. In addition, the pest or weed control at 500 g/ha was 100% in the test with pigweed (Amaranthus retroflexus, post-emergence, 240 h, 500 g ai/ha, 0 to 100 scale, 0 no effect, 100 complete control, read-out: Plant response rating Pigweed); 100% in the test on large (Lg) crabgrass [2] (500 g ai/ha, 0 to 100 scale, 0 no effect, 100 complete control, approx. 10 days, read-out: Crabgrass, Large plant response rating); 100% with giant foxtail (Setaria faberi, pre-emergence, 240 h, 500 g ai/ha, 0 to 100 scale, 0 no effect, 100 complete control, approx. 10 days, read-out: Foxtail, Giant plant response rating); 90% in the test with velvetleaf [3] (Abutilon theophrasti, pre-emergence, 240 h, 500 g ai/ha, 0 to 100 scale, 0 no effect, 100 complete control, approx. 10 days, read-out: Velvetleaf plant response rating). Moreover, the pest or weed control at 62 g/ha with Italian ryegrass (62 g ai/ha, preemergence, scale 0 (no effect) to 100 (complete control), read-out: Ryegrass, Italian plant response rating) is 5%; in the test on morningglory (62 g ai/ha, preemergence, scale 0 (no effect) to 100 (complete control), read-out: Morningglory plant response rating), 30%; with velvetleaf [1] (62 g ai/ha, preemergence, scale 0 (no effect) to 100 (complete control), read-out: Velvetleaf plant response rating), 100%; with johnsongrass (62 g ai/ha, preemergence, scale 0 (no effect) to 100 (complete control), read-out: Johnsongrass plant response rating) it was 30%; in the test with galium (62 g ai/ha, preemergence, scale 0 (no effect) to 100 (complete control), read-out: Galium plant response rating) it was 95%. Also, the pest or weed control at 250 g/ha worked out at 85% in the test with Italian ryegrass (250 g ai/ha, preemergence, scale 0 (no effect) to 100 (complete control), read-out: Ryegrass, Italian plant response rating); 98% in the test with morningglory (250 g ai/ha, preemergence, scale 0 (no effect) to 100 (complete control), read-out: Morningglory plant response rating); 100% in the test with velvetleaf [1] (250 g ai/ha, preemergence, scale 0 (no effect) to 100 (complete control), read-out: Velvetleaf plant response rating); 90% in the test on Heteranthera limosa (Heteranthera limosa, read-out: Plant response rating, Ducksalad); 98% with johnsongrass (250 g ai/ha, preemergence, scale 0 (no effect) to 100 (complete control), read-out: Johnsongrass plant response rating); 100% in the test on galium (250 g ai/ha, preemergence, scale 0 (no effect) to 100 (complete control), read-out: Galium plant response rating). The pest or weed control at 31 g/ha in the test with Italian ryegrass (Preemergence, 31 g ai/ha, scale 0 to 100, 0 no effect, 100 complete control, read-out: Plant response rating, Ryegrass, Italian) was 0%; in the test on morningglory (Preemergence, 31 g ai/ha, scale 0 to 100, 0 no effect, 100 complete control, read-out: Plant response rating, Morningglory), 10%; in the test on velvetleaf [1] (Preemergence, 31 g ai/ha, scale 0 to 100, 0 no effect, 100 complete control, read-out: Plant response rating, Velvetleaf), 60%; in the test with johnsongrass (Preemergence, 31 g ai/ha, scale 0 to 100, 0 no effect, 100 complete control, read-out: Plant response rating, Johnsongrass) it was 30%; with galium (Preemergence, 31 g ai/ha, scale 0 to 100, 0 no effect, 100 complete control, read-out: Plant response rating, Galium), 90%. Also, in the test with velvetleaf [3] (setting [5]), the “Plant response rating, Velvetleaf” value turned out to be 90.
With `FCc1cccc(Oc2ncc(Br)cn2)c1-n1cc(C(F)(F)F)cn1` [Compound 120], in the test on pigweed (31 g ai/ha, 0 to 100 scale, 0 no effect, 100 complete control), the “Plant response rating, Pigweed” value was 60. In the test on chickweed (postemergence), the “Plant response rating (0 to 100), Chickweed” value came to 40. Also, the “Plant response rating, Chickweed” value is reported as 80 in the test on chickweed (setting [6]) and 70 in the test on chickweed (setting [7]). For the same compound, the “Foxtail, Giant plant response rating (0 to 100 scale)” value in the test with giant foxtail (31 g ai/ha) is on record as 50. In the test on giant foxtail (setting [5]), the “Plant response rating, Foxtail, Giant” value stood at 100. In the test on Heteranthera limosa, the “Plant response rating, Ducksalad” value was found to be 95. Moreover, the “Plant response rating (0 to 100), Crabgrass, Large” value in the test with large (Lg) crabgrass [4] (postemergence) is 5. Moreover, the “Plant response rating, Crabgrass, Large” value in the test on large (Lg) crabgrass [4] (setting [6]) and with large (Lg) crabgrass [4] (setting [7]) was 10 each time. Moreover, the “Plant response rating (0 to 100), Corn” value in the test with corn (postemergence) came out at 5. The figures for the “Plant response rating, Corn” value with corn (setting [6]) and in the test on corn (setting [7]) were 10 and 5, respectively. The “Plant response rating (0 to 100), Wheat” value with wheat, winter (postemergence) was 0. Besides, the “Plant response rating, Wheat” value with wheat, winter (setting [6]) stood at 0; in the test with wheat, winter (setting [7]), 0.
For `Fc1cccc(Oc2ncc(Cl)cn2)c1-n1cc(C2CC2)nn1` [Compound 155], in the test with pigweed (1000 g ai/ha, 0 to 100 scale, 0 no effect, 100 complete control), the “Plant response rating, Pigweed” value was 100. The “Plant response rating (0 to 100), Chickweed” value in the test on chickweed (postemergence) is reported as 90. Also, the “Chickweed plant response rating” value in the test with chickweed (setting [8]) turned out to be 80. Moreover, the “Plant response rating, Chickweed” value in the test on chickweed (setting [6]) was 90; with chickweed (setting [7]) it was 75. Besides, in the test with giant foxtail (1000 g ai/ha, 0 to 100 scale, 0 no effect, 100 complete control, approx. 10 days), the “Foxtail, Giant plant response rating” value was found to be 100. The “Plant response rating, Ducksalad” value in the test on Heteranthera limosa turned out to be 100. For the same compound, the “Plant response rating (0 to 100), Crabgrass, Large” value with large (Lg) crabgrass [4] (postemergence) is 5. In addition, in the test on large (Lg) crabgrass [4] (setting [8]), the “Crabgrass, Large plant response rating” value was 5. The figures for the “Plant response rating, Crabgrass, Large” value in the test with large (Lg) crabgrass [4] (setting [6]) and in the test on large (Lg) crabgrass [4] (setting [7]) were 15 and 5, respectively. For the same compound, the “Plant response rating (0 to 100), Corn” value in the test on corn (postemergence) came out at 5. Also, the “Corn plant response rating” value in the test on corn (setting [8]) is given as 5. Moreover, the “Plant response rating, Corn” value is 10 with corn (setting [6]) and 5 in the test on corn (setting [7]). In addition, the “Plant response rating (0 to 100), Wheat” value in the test on wheat, winter (postemergence) came to 5. Also, the “Wheat plant response rating” value in the test with wheat, winter (setting [8]) is recorded as 10. In addition, the “Plant response rating, Wheat” value stood at 35 in the test with wheat, winter (setting [6]) and 15 with wheat, winter (setting [7]).
